From the supplement of paper PMC10307832

Key:
Test in all cases: relative viability (nuclei count vs DMSO), 5 days (fraction); higher = more cells survive
NCI-H23 = tested on: NCI-H23
Outline: (§1)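 Each reported value is a median over duplicate plates. It expresses relative viability: treated-well nuclei count divided by vehicle-well nuclei count. Lung cancer cell lines in 1536-well plates were dosed by pin tool a day after seeding, alone with one drug or with a fixed anchor-drug dose plus five library-drug doses (not always all listed) in √10 steps, and nuclei were counted after 5 days.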

NCI-H441 = tested on: NCI-H441
Outline: as §1

UMC-11 = tested on: UMC-11
Outline: as §1

PC-3 [JPC-3] = tested on: PC-3 [JPC-3]
Outline: as §1

NCI-H2170 = tested on: NCI-H2170
Outline: as §1

NCI-H2228 = tested on: NCI-H2228
Outline: as §1

NCI-H727 = tested on: NCI-H727
Outline: as §1

H3255 = tested on: H3255
Outline: as §1

EPLC-272H = tested on: EPLC-272H
Outline: as §1

LOU-NH91 = tested on: LOU-NH91
Outline: as §1

NCI-H2087 = tested on: NCI-H2087
Outline: as §1

NCI-H2085 = tested on: NCI-H2085
Outline: as §1

SW 1573 = tested on: SW 1573
Outline: as §1

NCI-H1975 = tested on: NCI-H1975
Outline: as §1

NCI-H650 = tested on: NCI-H650
Outline: as §1

LC-2-ad = tested on: LC-2-ad
Outline: as §1

NCI-H1651 = tested on: NCI-H1651
Outline: as §1

NCI-H838 = tested on: NCI-H838
Outline: as §1

NCI-H2009 = tested on: NCI-H2009
Outline: as §1

HARA = tested on: HARA
Outline: as §1

NCI-H2023 = tested on: NCI-H2023
Outline: as §1

For `Nc1cccc2c1CN(C1CCC(=O)NC1=O)C2=O` (stereo unspecified) [Lenalidomide] + Cc1nc(NC(=O)N2CCC[C@H]2C(N)=O)sc1-c1ccnc(C(C)(C)C(F)(F)F)c1 [Alpelisib] (partner 2 µM), the relative viability (NCI-H23; first compound 0.253 µM) was 0.792, the relative viability (NCI-H23; first compound 0.8 µM) was 0.581 and the relative viability (NCI-H23; first compound 2.53 µM) was 0.846. It also gave a relative viability (NCI-H23; first compound 8 µM) of 0.47, a relative viability (NCI-H441; first compound 0.253 µM) of 0.74 and a relative viability (NCI-H441; first compound 0.8 µM) of 0.663. The relative viability (NCI-H441; first compound 2.53 µM) was 0.917, the relative viability (NCI-H441; first compound 8 µM) was 0.775 and the relative viability (UMC-11; first compound 0.253 µM) was 1.05. It also gave a relative viability (UMC-11; first compound 0.8 µM) of 0.961, a relative viability (UMC-11; first compound 2.53 µM) of 1.03 and a relative viability (UMC-11; first compound 8 µM) of 0.958. The relative viability (PC-3 [JPC-3]; first compound 0.253 µM) was 0.992, the relative viability (PC-3 [JPC-3]; first compound 0.8 µM) was 0.981 and the relative viability (PC-3 [JPC-3]; first compound 2.53 µM) was 1.09. The relative viability (PC-3 [JPC-3]; first compound 8 µM) was 1.05, the relative viability (NCI-H2170; first compound 0.253 µM) was 0.881 and the relative viability (NCI-H2170; first compound 0.8 µM) was 0.781. For the same compound, the relative viability (NCI-H2170; first compound 2.53 µM) was 0.84, the relative viability (NCI-H2170; first compound 8 µM) was 0.755 and the relative viability (NCI-H2228; first compound 0.253 µM) was 0.851. The relative viability (NCI-H2228; first compound 0.8 µM) was 0.736, the relative viability (NCI-H2228; first compound 2.53 µM) was 0.785 and the relative viability (NCI-H2228; first compound 8 µM) was 0.817. The relative viability (NCI-H727; first compound 0.253 µM) was 0.546, the relative viability (NCI-H727; first compound 2.53 µM) was 0.543 and the relative viability (NCI-H727; first compound 8 µM) was 0.553. The relative viability (H3255; first compound 0.253 µM) was 0.664, the relative viability (H3255; first compound 0.8 µM) was 0.682 and the relative viability (H3255; first compound 2.53 µM) was 0.916. For the same compound, the relative viability (H3255; first compound 8 µM) was 0.584, the relative viability (EPLC-272H; first compound 0.253 µM) was 0.975 and the relative viability (EPLC-272H; first compound 2.53 µM) was 1.03. It also gave a relative viability (EPLC-272H; first compound 8 µM) of 0.684, a relative viability (LOU-NH91; first compound 0.253 µM) of 0.686 and a relative viability (LOU-NH91; first compound 0.8 µM) of 0.762. The relative viability (LOU-NH91; first compound 2.53 µM) was 0.73, the relative viability (LOU-NH91; first compound 8 µM) was 0.662 and the relative viability (NCI-H2087; first compound 0.253 µM) was 0.996. For the same compound, the relative viability (NCI-H2087; first compound 0.8 µM) was 0.945, the relative viability (NCI-H2087; first compound 2.53 µM) was 1.17 and the relative viability (NCI-H2087; first compound 8 µM) was 1.08. For the same compound, the relative viability (NCI-H2085; first compound 0.253 µM) was 1.01, the relative viability (NCI-H2085; first compound 0.8 µM) was 0.997 and the relative viability (NCI-H2085; first compound 2.53 µM) was 0.952. It also gave a relative viability (NCI-H2085; first compound 8 µM) of 0.972, a relative viability (SW 1573; first compound 0.253 µM) of 0.775 and a relative viability (SW 1573; first compound 0.8 µM) of 0.921. For the same compound, the relative viability (SW 1573; first compound 2.53 µM) was 1.01, the relative viability (SW 1573; first compound 8 µM) was 0.696 and the relative viability (NCI-H1975; first compound 0.253 µM) was 0.724. The relative viability (NCI-H1975; first compound 0.8 µM) was 0.667, the relative viability (NCI-H1975; first compound 2.53 µM) was 0.753 and the relative viability (NCI-H1975; first compound 8 µM) was 0.592. For the same compound, the relative viability (NCI-H650; first compound 0.253 µM) was 1.22, the relative viability (NCI-H650; first compound 2.53 µM) was 1.41 and the relative viability (NCI-H650; first compound 8 µM) was 1.15. For the same compound, the relative viability (LC-2-ad; first compound 0.253 µM) was 0.86, the relative viability (LC-2-ad; first compound 0.8 µM) was 0.98 and the relative viability (LC-2-ad; first compound 2.53 µM) was 0.84. The relative viability (LC-2-ad; first compound 8 µM) was 0.881, the relative viability (NCI-H1651; first compound 0.253 µM) was 0.894 and the relative viability (NCI-H1651; first compound 0.8 µM) was 1.14. For the same compound, the relative viability (NCI-H1651; first compound 2.53 µM) was 1.04, the relative viability (NCI-H1651; first compound 8 µM) was 1.07 and the relative viability (NCI-H838; first compound 0.253 µM) was 0.97. For the same compound, the relative viability (NCI-H838; first compound 0.8 µM) was 1, the relative viability (NCI-H838; first compound 2.53 µM) was 1.25 and the relative viability (NCI-H838; first compound 8 µM) was 0.896. For the same compound, the relative viability (NCI-H2009; first compound 0.253 µM) was 1.1, the relative viability (NCI-H2009; first compound 0.8 µM) was 1.12 and the relative viability (NCI-H2009; first compound 2.53 µM) was 1.19. The relative viability (NCI-H2009; first compound 8 µM) was 1.21, the relative viability (HARA; first compound 0.253 µM) was 0.782 and the relative viability (HARA; first compound 0.8 µM) was 0.771. It also gave a relative viability (HARA; first compound 2.53 µM) of 0.921, a relative viability (HARA; first compound 8 µM) of 0.743 and a relative viability (NCI-H2023; first compound 0.253 µM) of 0.594. The relative viability (NCI-H2023; first compound 0.8 µM) was 0.745, the relative viability (NCI-H2023; first compound 2.53 µM) was 0.697 and the relative viability (NCI-H2023; first compound 8 µM) was 0.61.
